Data from US11026944B2, “Compositions and methods for treating insomnia” (Eisai R&D Management Co., Ltd., priority 2014, dated 2021).

What was measured:
[1] = test system: subjects with primary insomnia; test: 001 Study Part B: polysomnography (LPS, WASO, SE); type: in vivo, human
Description: For Part B, 58 otherwise healthy subjects with primary insomnia were randomized across three cohorts, and stratified by gender. Part B also included an active control (zolpidem) and matching placebo. In each cohort, there were approximately 12 subjects in the compound A/zolpidem-matched placebo group, approximately four subjects in the zolpidem/compound A-matched placebo group, and approximately four subjects in the compound A-matched placebo/zolpidem-matched placebo group. Part B dosing occurred in the evening, 30 minutes prior to the sleep period. The starting dose for Part B was 3 dose levels that determined to be safe and well tolerated in Part A. Subsequent dose levels in Part B were determined based on the PD results of the first cohort in Part B and PD and safety results from at least 3 completed higher dose cohorts in Part A. Each cohort in Part B was divided into at least two groups, with dosing of each group staggered by a minimum of 2 days.
After the initial Screening visit, eligible subjects were scheduled to return to the clinic for 2 days during the Screening Period to conduct screening/baseline PSGs. These two days occurred at least 3 days after the initial Screening visit and within a window from Day-7 to Day-6 (±2 days). The first PSG was used to screen for sleep apnea and periodic limb movements in sleep (PLMS) and serve as the first baseline PSG. The second PSG was used as the second baseline PSG. Specific PSG variables were used to determine whether subjects met PSG inclusion criteria, and the average of PSG variables from these two PSGs was used as Baseline for this PD measure. Subjects who had met PSG inclusion criteria returned to the clinic on Day-1 for additional baseline procedures and randomization. Subjects were not allowed to nap on Day 1. On the evening of Day 1, after fasting a minimum of 3 hours, study drug was administered 30 minutes prior to the subject's habitual bedtime (lights-out), as calculated from the sleep diary for the first PSG during the Screening Period. PK blood samples were collected at prespecified timepoints, and PD assessments were performed. PSG was recorded on Day 1, postdose. Subjects were administered additional PD assessments each morning on Day 1 through Day 6. These assessments included the KSS, DSST, and PVT, in order to assess daytime sleepiness, level of alertness, and ability to concentrate. The KSS and DSST were also administered 5 minutes predose and 25 minutes postdose on Day 1, just prior to lights-out. Waketime Questionnaires were administered after the PD assessments within 15 minutes of lights-on, on Day 1 to Day 6. Time and duration of naps was recorded on Day 2.
In addition, PSG was performed during the Screening Period at Days-7 and -6 (±2 days), and postdose on Day 1. An 8-hour diagnostic PSG consisting of electroencephalogram (EEG), electrooculogram (EOG), electromyogram (EMG), ECGs, leg electrodes, and measures of respiratory function (airflow, respiratory effort, and oxygen saturation) were performed starting at the subject's habitual bedtime as determined from the sleep diary for the 3 nights immediately prior to the first PSG on Day-7 (±2 days). PSG variables from this night were used to screen for sleep apnea and PLMS. On Day-6 (±2) and postdose on Day1, standard PSGs (i.e., not including leg electrodes or measures of respiratory function other than oxygen saturation) were performed. Specified PSG variables from these two PSGs conducted during the Screening Period were used to determine whether subjects met PSG inclusion criteria. The average of PSG variables from these two PSGs conducted during the Screening Period were used as baseline PSG values. The key PD parameters such as PSG LPS, TST, SE, and WASO have been obtained from all PSG recordings.

[2] = test system: healthy adult subjects; test: 002 Study: next-day residual sleepiness (KSS, PVT, DSST) and Waketime Questionnaire; type: in vivo, human
Method: All subjects were administered PD assessments, including the Karolinska Sleepiness Scale (KSS), Digit Symbol Substitution Test (DSST), and Psychomotor Vigilance Test (PVT) in order to assess acute sleepiness in the interval between dosing and bedtime, as well as next-day residual sleepiness and the level of alertness and ability to concentrate. In addition, a Waketime Questionnaire was administered daily in order to assess quality of sleep on the previous night.
PD effects were assessed by evaluating postdose and next-day functioning on the KSS, DSST, and the PVT, and by self-report of sleep quality on the Waketime Questionnaire. The KSS, DSST, and PVT were performed starting Day-1 at 15 minutes before habitual bedtime; on Days 1 to 15 within 15 minutes after habitual waketime, and at 1, 2, 4, 8, and 12 hours after habitual waketime, and on Days 1 to 14 at 15 minutes predose and 15 minutes postdose. 24-hour Holter recordings were started 30 minutes before bedtime on Day-2 and just prior to dosing on Day 14. Extractions from these recordings were used to conduct ECG analyses, including the HPQT analysis. Waketime Questionnaires were administered on Day 1 to Day 19.
The KSS, PVT, and DSST were administered on each treatment day in the evening predose and postdose to assess the acute effect of compound A on sleepiness. For these timepoints, the daily 15 minutes predose values on the KSS, DSST, and PVT served as a baseline for that day's 15 minutes postdose value (daily baseline). The KSS, PVT, and DSST were also administered throughout the daytime hours subsequent to each dosing evening to assess the effect of compound A on next-day residual sleepiness. For these timepoints, the assessments taken at Day 1, 15 minutes and 1, 2, 4, 8, and 12 hours after habitual waketime served as the baseline for the assessments taken at the corresponding times after habitual waketime on Day 2 to Day 15 (time-matched baseline). Waketime Questionnaires were administered on Day 1 through Day 19 in the morning hours. The predose value on Day 1 was used as the baseline. The difference between placebo and each dose of compound A in change from baseline at each timepoint was calculated along with 95% confidence intervals (CIs). Potential dose-response and time trend were explored as data allowed.

## Cc1ncc(OC[C@@]2(c3cccc(F)c3)C[C@H]2C(=O)Nc2ccc(F)cn2)c(C)n1 [Compound A, (1R,2 S)-2-(((2,4-dimethylpyrimidin-5-yl)oxy)methyl)-2-(3-fluorophenyl)-N-(5-fluoropyridin-2-yl) cyclopropanecarboxamide]
[1]; single 2.5 mg evening dose
  LPS reduction relative to Baseline: approximately 30 minutes
  WASO reduction relative to Baseline: approximately 30 minutes
[1]; single 10 mg evening dose
  LPS reduction relative to Baseline: approximately 30 minutes
  WASO reduction relative to Baseline: approximately 30 minutes
[1]; single 25 mg evening dose
  LPS reduction relative to Baseline: approximately 45 minutes
  WASO reduction relative to Baseline: more than 45 minutes
[2]; 2.5-75 mg once daily for 14 days
  next day residual sleepiness as measured by KSS, PVT, DSST: dose-related increases in both the magnitude and duration
[2]; 2.5-mg and 5-mg dose groups, any time, any treatment day
  next-day residual sleepiness vs placebo (KSS, PVT, DSST): no meaningful difference from placebo
[2]; 10-mg dose group, within 2 hours after waketime, Day 2 through Day 4
  next-day residual sleepiness vs placebo (KSS): Slight differences from placebo
[2]; 25-mg dose group, within 2 hours after waketime
  increase in next-day residual sleepiness: more consistent and slightly larger than in the 10-mg dose group
[2]; 50-mg and 75-mg dose groups
  next-day residual sleepiness vs placebo, all assessments: consistent and relatively large differences from placebo
[2]; any dose group
  Waketime Questionnaire: changes in nighttime sleep: None of the items on the Waketime Questionnaire indicated a systematic pattern of changes in nighttime sleep
[2]; by 12 hours after waketime, any dose group, any day
  measures of sleepiness vs placebo: no differences from placebo
